Data from patent US20230021483A1, “[…] […] METHOD AND CLASSIFICATION OF PHARMACEUTICAL COMPONENTS BY USING TRANSCRIPTOMES” (National Institutes of Biomedical Innovation, Health and …, priority 2016, published 2023).

Legend:
[1] = tested on: adjuvant-associated biological themes in LV, SP, LN; details: LV, ID
Summary of the method: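 Enrichment score S sums −log(p) over consensus themes whose names contain a pre-selected adjuvant-associated term such as "stress" or "cytokine". Consensus requires a theme in all three mice of a group, p<0.05. Themes come from TargetMine analysis of genes with eij/ei(c)>2.0, Fisher's exact test, Holm-Bonferroni-corrected.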

liver (LV) = assay: Whole organ transcriptome (GeneChip microarray) of liver 6 h after adjuvant administration: sDEGs, hierarchical clustering; assay type: in vivo, C57BL/6 mice; details: hierarchical clustering, liver; further: key: G1 (interferon signaling); G2 (metabolism of lipids and lipoproteins); G3 (response to stress); G4 (response to wounding); G5 (phosphate-containing compound metabolic process); G6 (phagosome)

Nc1nc2c(ncn2[C@@H]2O[C@@H]3COP(=O)(O)O[C@H]4[C@@H](O)[C@H](n5cnc6c(=O)[nH]c(N)nc65)O[C@@H]4COP(=O)(O)O[C@H]3[C@H]2O)c(=O)[nH]1 [cdiGMP, Cyclic diguanylate monophosphate]
GO annotation: Cytokine-cytokine receptor interaction (Term: cytokine) [1]: 13.8
GO annotation: Cytokine-cytokine receptor interaction|Endocytosis (Term: cytokine) [1]: 33.9
GO annotation: I-kappaB kinase/NF-kappaB signaling (Term: NF-kappa B signaling pathway) [1]: 13.8
GO annotation: NF-kappa B signaling pathway (Term: NF-kappa B signaling pathway) [1]: 15.7
GO annotation: TNF signaling pathway (Term: TNF signaling pathway) [1]: 31.3
GO annotation: activation of immune response (Term: immune response) [1]: 17.9
GO annotation: activation of innate immune response (Term: innate immune response) [1]: 21.2
GO annotation: acute inflammatory response (Term: inflammatory response) [1]: 0
GO annotation: adaptive immune response (Term: adaptive immune response) [1]: 10
GO annotation: adaptive immune response based on somatic recombination of immune receptors built from immunoglobulin superfamily domains (Term: adaptive immune response) [1]: 10.6
GO annotation: apoptotic process (Term: apoptosis) [1]: 12.1
GO annotation: apoptotic signaling pathway (Term: apoptosis) [1]: 0
GO annotation: cell chemotaxis (Term: chemotaxis) [1]: 0
GO annotation: cell death (Term: cell death) [1]: 17.7
GO annotation: cell migration (Term: migration) [1]: 0
GO annotation: cellular response to cytokine stimulus (Term: cytokine) [1]: 38.8
GO annotation: cellular response to interferon-alpha (Term: IFN alpha) [1]: 7.42
GO annotation: cellular response to stress (Term: stress) [1]: 0
GO annotation: chemokine production (Term: chemokine) [1]: 8.52
GO annotation: chemokine-mediated signaling pathway (Term: chemokine) [1]: 5.9
GO annotation: chemotaxis (Term: chemotaxis) [1]: 0
GO annotation: cytokine biosynthetic process (Term: cytokine) [1]: 7.93
GO annotation: cytokine metabolic process (Term: cytokine) [1]: 7.39
GO annotation: cytokine production (Term: cytokine) [1]: 31.3
GO annotation: cytokine secretion (Term: cytokine) [1]: 0
GO annotation: cytokine-mediated signaling pathway (Term: cytokine) [1]: 20
GO annotation: death (Term: cell death) [1]: 12.1
GO annotation: defense response (Term: defense response) [1]: 80.9
GO annotation: defense response to Gram-positive bacterium (Term: defense response) [1]: 7.18
GO annotation: defense response to bacterium (Term: defense response) [1]: 10.5
GO annotation: defense response to other organism (Term: defense response) [1]: 44.1
GO annotation: defense response to protozoan (Term: defense response) [1]: 5.31
GO annotation: defense response to virus (Term: defense response) [1]: 24.6
GO annotation: granulocyte chemotaxis (Term: chemotaxis) [1]: 0
GO annotation: granulocyte migration (Term: migration) [1]: 0
GO annotation: immune response (Term: immune response) [1]: 52.3
GO annotation: immune response-activating signal transduction (Term: immune response) [1]: 19.3
GO annotation: immune response-regulating signaling pathway (Term: immune response) [1]: 23.5
GO annotation: inflammatory response (Term: inflammatory response) [1]: 26.1
GO annotation: innate immune response (Term: innate immune response) [1]: 40.7
GO annotation: innate immune response-activating signal transduction (Term: innate immune response) [1]: 20.3
GO annotation: interferon-alpha production (Term: IFN alpha) [1]: 7.69
GO annotation: intrinsic apoptotic signaling pathway (Term: apoptosis) [1]: 0
GO annotation: leukocyte chemotaxis (Term: chemotaxis) [1]: 0
GO annotation: leukocyte migration (Term: migration) [1]: 0
GO annotation: leukocyte migration involved in inflammatory response (Term: inflammatory response) [1]: 0
GO annotation: lymphocyte chemotaxis (Term: chemotaxis) [1]: 0
GO annotation: lymphocyte migration (Term: migration) [1]: 0
GO annotation: myeloid leukocyte migration (Term: migration) [1]: 0
GO annotation: negative regulation of apoptotic process (Term: apoptosis) [1]: 0
GO annotation: negative regulation of cell death (Term: cell death) [1]: 0
GO annotation: negative regulation of cytokine production (Term: cytokine) [1]: 6.2
GO annotation: negative regulation of defense response (Term: defense response) [1]: 8.05
GO annotation: negative regulation of immune response (Term: immune response) [1]: 6.54
GO annotation: negative regulation of innate immune response (Term: innate immune response) [1]: 10.4
GO annotation: negative regulation of programmed cell death (Term: cell death) [1]: 0
GO annotation: neutrophil chemotaxis (Term: chemotaxis) [1]: 0
GO annotation: neutrophil migration (Term: migration) [1]: 0
GO annotation: positive regulation of I-kappaB kinase/NF-kappaB signaling (Term: NF-kappa B signaling pathway) [1]: 7.15
GO annotation: positive regulation of adaptive immune response (Term: adaptive immune response) [1]: 0
GO annotation: positive regulation of apoptotic process (Term: apoptosis) [1]: 0
GO annotation: positive regulation of cell death (Term: cell death) [1]: 0
GO annotation: positive regulation of cell migration (Term: migration) [1]: 0
GO annotation: positive regulation of chemokine production (Term: chemokine) [1]: 8.31
GO annotation: positive regulation of chemotaxis (Term: chemotaxis) [1]: 0
GO annotation: positive regulation of cytokine biosynthetic process (Term: cytokine) [1]: 3.62
GO annotation: positive regulation of cytokine production (Term: cytokine) [1]: 23.6
GO annotation: positive regulation of defense response (Term: defense response) [1]: 35.8
GO annotation: positive regulation of immune response (Term: immune response) [1]: 24.4
GO annotation: positive regulation of inflammatory response (Term: inflammatory response) [1]: 0
GO annotation: positive regulation of innate immune response (Term: innate immune response) [1]: 22.3
GO annotation: positive regulation of interferon-alpha production (Term: IFN alpha) [1]: 8.97
GO annotation: positive regulation of leukocyte chemotaxis (Term: chemotaxis) [1]: 0
GO annotation: positive regulation of leukocyte migration (Term: migration) [1]: 3.33
GO annotation: positive regulation of programmed cell death (Term: cell death) [1]: 0
GO annotation: positive regulation of response to wounding (Term: wounding) [1]: 0
GO annotation: positive regulation of tumor necrosis factor superfamily cytokine (Term: cytokine) [1]: 0
GO annotation: production of molecular mediator of immune response (Term: immune response) [1]: 0
GO annotation: programmed cell death (Term: cell death) [1]: 14
GO annotation: regulation of I-kappaB kinase/NF-kappaB signaling (Term: NF-kappa B signaling pathway) [1]: 8.16
GO annotation: regulation of adaptive immune response (Term: adaptive immune response) [1]: 8.01
GO annotation: regulation of adaptive immune response based on somatic recombination of immune receptors built from immunoglobulin superfamily domains (Term: adaptive immune response) [1]: 3.64
GO annotation: regulation of apoptotic process (Term: apoptosis) [1]: 4.93
GO annotation: regulation of apoptotic signaling pathway (Term: apoptosis) [1]: 0
GO annotation: regulation of cell death (Term: cell death) [1]: 4.48
GO annotation: regulation of cell migration (Term: migration) [1]: 0
GO annotation: regulation of chemokine production (Term: chemokine) [1]: 9.64
GO annotation: regulation of chemotaxis (Term: chemotaxis) [1]: 0
GO annotation: regulation of cytokine biosynthetic process (Term: cytokine) [1]: 3.81
GO annotation: regulation of cytokine production (Term: cytokine) [1]: 31.6
GO annotation: regulation of defense response (Term: defense response) [1]: 56.5
GO annotation: regulation of defense response to virus (Term: defense response) [1]: 0
GO annotation: regulation of defense response to virus by host (Term: defense response) [1]: 0
GO annotation: regulation of immune response (Term: immune response) [1]: 29.4
GO annotation: regulation of inflammatory response (Term: inflammatory response) [1]: 12.3
GO annotation: regulation of innate immune response (Term: innate immune response) [1]: 33.4
GO annotation: regulation of interferon-alpha production (Term: IFN alpha) [1]: 8.3
GO annotation: regulation of intrinsic apoptotic signaling pathway (Term: apoptosis) [1]: 0
GO annotation: regulation of leukocyte chemotaxis (Term: chemotaxis) [1]: 0
GO annotation: regulation of leukocyte migration (Term: migration) [1]: 0
GO annotation: regulation of programmed cell death (Term: cell death) [1]: 5.36
GO annotation: regulation of response to stress (Term: stress) [1]: 42.9
GO annotation: regulation of response to wounding (Term: wounding) [1]: 10.7
GO annotation: regulation of tumor necrosis factor superfamily cytokine production (Term: cytokine) [1]: 4.03
GO annotation: response to cytokine (Term: cytokine) [1]: 56.3
GO annotation: response to interferon-alpha (Term: IFN alpha) [1]: 12.6
GO annotation: response to stress (Term: stress) [1]: 56.2
GO annotation: response to wounding (Term: wounding) [1]: 11.4
GO annotation: taxis (Term: chemotaxis) [1]: 0
GO annotation: tumor necrosis factor superfamily cytokine production (Term: cytokine) [1]: 3.79
IFN beta: cellular response to interferon-beta [1]: 23.1
IFN beta: interferon-beta production [1]: 8.61
IFN beta: positive regulation of interferon-beta production [1]: 13.2
IFN beta: regulation of interferon-beta production [1]: 9.22
IFN beta: response to interferon-beta [1]: 26.5
IFN gamma: cellular response to interferon-gamma [1]: 10.1
IFN gamma: interferon-gamma production [1]: 5.35
IFN gamma: regulation of interferon-gamma production [1]: 0
IFN gamma: response to interferon-gamma [1]: 10.8
interleukin-6: interleukin-6 production [1]: 7.8
interleukin-6: positive regulation of interleukin-6 production [1]: 0
interleukin-6: regulation of interleukin-6 production [1]: 8.27
interleukin-12: interleukin-12 production [1]: 6.51
interleukin-12: positive regulation of interleukin-12 production [1]: 0
interleukin-12: regulation of interleukin-12 production [1]: 6.99
adjuvant group (cluster) in LV (liver (LV)): G1
